Laboratory results reported in patent US20230365556A1, “N-ACYL AMINO ACID COMPOUNDS AND METHODS OF USE” (Pliant Therapeutics, Inc., priority 2016, published 2023).

Molecular target: αvβ1 integrin (αvβ1 expressing CHO cells) (Homo sapiens (Human), UniProt P05556+P06756)
Experiment: Cell adhesion assay: inhibition of αvβ1 expressing CHO cells attaching to TGFβ1LAP
Assay type: cell-based
Settings: 1 h at 37° C., crystal violet absorbance 595 nm, read-out: αvβ1 Inhibition IC50 (nM)-range
Protocol: Example B1—Cell Adhesion Assay
In order to determine the potency, the compounds were assessed for their ability to inhibit αvβ1 expressing CHO cells attach to TGFβ1LAP. Microplates were coated overnight with 2 ug/ml TGFβ1LAP at 4° C., and blocked with 2% BSA/PBS for 30 min before the assay. Cells were detached and washed in PBS. After that the cells were resuspended in DMEM at 1.0×10^6 cells/ml, fifty microliter of cell suspension and fifty microliter of compound solution were added into the plate. The plates were incubated for one hour at 37° C. in humidified 5% carbon dioxide. Non-adherent cells were removed by centrifugation top side down at 58 g for 5 min. The attached cells were fixed and stained with 0.5% crystal violet (in 20% methanol and 1% formaldehyde) and the wells washed with PBS. Crystal violet was dissolved in 2% Triton-X in PBS. The relative number of cells in each well was evaluated by the absorbance at 595 nm in a microplate reader (Tecan). IC50 values were determined by non-linear regression with four parameters (Graphpad Prism 7.01, Y=Bottom+(Top−Bottom)/(1+10^((Log IC50−X)*HillSlope)).
The compounds tested were compound samples prepared according to procedures described in the Synthetic Examples section, with the stereochemical purity as indicated in the Examples indicated for Example or Compound No. 1-62. The compounds tested were predominantly S-configuration at the alpha carbon of the amino acid scaffold, except for compounds 123, 124, and 125 which were predominantly R-configuration at the alpha carbon of the amino acid scaffold. “Example or Compound No.” in Table B-1 refers to the compound illustrated in the examples for Example or Compound Nos. 1-62 (the compounds of Examples 1-62 are labeled as Compounds 1-62 in Table 1). “Example or Compound No.” in Table B-1 refers to the compound number as indicated in Table 1 or Table 2 for Example or Compound Nos. 63-126.

Sequence of αvβ1 integrin (αvβ1 expressing CHO cells) (P06756 31-889): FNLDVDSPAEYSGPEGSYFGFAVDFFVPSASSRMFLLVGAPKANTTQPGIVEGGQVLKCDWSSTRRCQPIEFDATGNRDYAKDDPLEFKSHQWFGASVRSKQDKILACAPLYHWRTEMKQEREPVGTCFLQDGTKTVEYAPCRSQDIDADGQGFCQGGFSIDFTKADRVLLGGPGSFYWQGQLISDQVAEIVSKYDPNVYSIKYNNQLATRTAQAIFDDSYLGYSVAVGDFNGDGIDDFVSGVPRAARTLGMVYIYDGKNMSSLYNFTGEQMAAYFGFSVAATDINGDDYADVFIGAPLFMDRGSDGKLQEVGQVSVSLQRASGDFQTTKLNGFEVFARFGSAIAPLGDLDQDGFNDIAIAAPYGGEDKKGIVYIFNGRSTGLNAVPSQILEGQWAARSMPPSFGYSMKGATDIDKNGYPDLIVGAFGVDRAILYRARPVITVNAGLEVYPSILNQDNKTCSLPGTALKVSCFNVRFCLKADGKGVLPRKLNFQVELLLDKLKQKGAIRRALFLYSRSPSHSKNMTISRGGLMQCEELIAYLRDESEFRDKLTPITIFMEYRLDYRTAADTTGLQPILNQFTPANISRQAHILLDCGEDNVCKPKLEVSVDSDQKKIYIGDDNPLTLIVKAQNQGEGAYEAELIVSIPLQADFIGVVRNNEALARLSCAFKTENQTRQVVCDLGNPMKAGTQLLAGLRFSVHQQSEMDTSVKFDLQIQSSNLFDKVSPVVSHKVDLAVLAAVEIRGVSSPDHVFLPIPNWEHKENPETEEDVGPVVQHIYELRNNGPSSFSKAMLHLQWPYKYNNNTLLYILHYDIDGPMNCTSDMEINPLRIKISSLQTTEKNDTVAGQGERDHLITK
Sequence of αvβ1 integrin (αvβ1 expressing CHO cells) (P06756 891-1048 partner): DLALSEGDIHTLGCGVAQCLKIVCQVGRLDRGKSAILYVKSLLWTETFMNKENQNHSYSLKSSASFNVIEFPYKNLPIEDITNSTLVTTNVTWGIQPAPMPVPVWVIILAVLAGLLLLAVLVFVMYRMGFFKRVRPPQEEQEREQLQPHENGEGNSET
Sequence of αvβ1 integrin (αvβ1 expressing CHO cells) (P05556 21-798): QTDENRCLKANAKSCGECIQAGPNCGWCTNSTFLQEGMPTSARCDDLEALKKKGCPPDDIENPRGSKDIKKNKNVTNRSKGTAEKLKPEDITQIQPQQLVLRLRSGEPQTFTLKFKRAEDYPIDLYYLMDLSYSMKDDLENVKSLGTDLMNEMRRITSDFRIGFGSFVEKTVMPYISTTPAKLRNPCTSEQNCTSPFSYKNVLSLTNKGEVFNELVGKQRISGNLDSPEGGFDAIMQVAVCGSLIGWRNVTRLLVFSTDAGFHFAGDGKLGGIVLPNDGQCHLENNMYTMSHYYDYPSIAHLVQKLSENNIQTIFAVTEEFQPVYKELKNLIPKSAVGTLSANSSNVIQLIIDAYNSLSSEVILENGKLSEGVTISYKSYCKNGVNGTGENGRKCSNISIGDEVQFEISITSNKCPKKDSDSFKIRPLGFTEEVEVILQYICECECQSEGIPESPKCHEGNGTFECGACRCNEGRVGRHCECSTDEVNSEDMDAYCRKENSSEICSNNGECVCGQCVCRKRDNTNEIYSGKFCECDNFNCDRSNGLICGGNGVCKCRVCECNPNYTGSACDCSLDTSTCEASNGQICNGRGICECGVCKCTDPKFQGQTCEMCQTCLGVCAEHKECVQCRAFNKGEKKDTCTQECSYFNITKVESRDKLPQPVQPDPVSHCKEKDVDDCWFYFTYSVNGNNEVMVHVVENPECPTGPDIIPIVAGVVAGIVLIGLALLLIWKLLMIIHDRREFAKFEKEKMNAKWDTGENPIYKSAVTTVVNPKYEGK

`O=C(N[C@@H](CCCCCCCCNC1=NCCNC1)C(=O)O)c1c(Cl)cccc1Cl` [Example 47, (S)-2-(2,6-dichlorobenzamido)-10-((3,4,5,6-tetrahydropyrazin-2-yl)amino)decanoic acid] and `O=C(N[C@@H](CCCCCCCCNC1=NCCO1)C(=O)O)c1c(Cl)cccc1Cl` [Example 48, (S)-2-(2,6-dichlorobenzamido)-10-((4,5-dihydrooxazol-2-yl)amino)decanoic acid] cannot be ordered by IC50: greater than 1000 nM for the first, greater than 1000 nM for the second.

Compared with `O=C(N[C@@H](CCCCCCCCNC1=NCCS1)C(=O)O)c1c(Cl)cccc1Cl` [Example 49, (S)-2-(2,6-dichlorobenzamido)-10-((4,5-dihydrothiazol-2-yl)amino)decanoic acid], `O=C(N[C@@H](CCCCCCCCNC1=NCCCS1)C(=O)O)c1c(Cl)cccc1Cl` [Example 54, (S)-2-(2,6-dichlorobenzamido)-10-((5,6-dihydro-4H-1,3-thiazin-2-yl)amino)decanoic acid] is higher in IC50: 50 to 250 nM for the first, 250 to 1000 nM for the second.

`CN1C(=O)CN=C1NCCCCCCCC[C@H](NC(=O)c1c(Cl)cccc1Cl)C(=O)O` [Example 50, (S)-2-(2,6-dichlorobenzamido)-10-((1-methyl-5-oxo-4,5-dihydro-1H-imidazol-2-yl)amino)decanoic acid] and `CN1CC(NCCCCCCCC[C@H](NC(=O)c2c(Cl)cccc2Cl)C(=O)O)=NCC1=O` [Example 52, (S)-2-(2,6-dichlorobenzamido)-10-((4-methyl-5-oxo-3,4,5,6-tetrahydropyrazin-2-yl)amino)decanoic acid] cannot be ordered by IC50: greater than 1000 nM for the first, greater than 1000 nM for the second.

`O=C(N[C@@H](CCCCCCCCNC1=NCCCO1)C(=O)O)c1c(Cl)cccc1Cl` [Example 51, (S)-2-(2,6-dichlorobenzamido)-10-((5,6-dihydro-4H-1,3-oxazin-2-yl)amino)decanoic acid] and `CN1CCN=C(NCCCCCCCC[C@H](NC(=O)c2c(Cl)cccc2Cl)C(=O)O)C1=O` [Example 53, (S)-2-(2,6-dichlorobenzamido)-10-((4-methyl-3-oxo-3,4,5,6-tetrahydropyrazin-2-yl)amino)decanoic acid] cannot be ordered by IC50: greater than 1000 nM for the first, greater than 1000 nM for the second.

First: CC(=O)N1CCN=C(NCCCCOc2ccc(C[C@H](NC(=O)c3c(Cl)cccc3Cl)C(=O)O)cc2)C1 [Example 55, (S)-3-(4-(4-((4-acetyl-3,4,5,6-tetrahydropyrazin-2-yl)amino)butoxy)phenyl)-2-(2,6-dichlorobenzamido)propanoic acid]
Second: CN1CC(NCCCCOc2ccc(C[C@H](NC(=O)c3c(Cl)cccc3Cl)C(=O)O)cc2)=NCC1=O [Example 58, (S)-2-(2,6-dichlorobenzamido)-3-(4-(4-((4-methyl-5-oxo-3,4,5,6-tetrahydropyrazin-2-yl)amino)butoxy)phenyl)propanoic acid]
The IC50 of the first is lower: 50 to 250 nM for the first, greater than 1000 nM for the second.

First: O=C(N[C@@H](Cc1ccc(OCCCCNC2=NCCNC2)cc1)C(=O)O)c1c(Cl)cccc1Cl [Example 56, (S)-2-(2,6-dichlorobenzamido)-3-(4-(4-((3,4,5,6-tetrahydropyrazin-2-yl)amino)butoxy)phenyl)propanoic acid]
Second: O=C(N[C@@H](Cc1ccc(OCCCCNC2=NCCO2)cc1)C(=O)O)c1c(Cl)cccc1Cl [Example 61, (S)-2-(2,6-dichlorobenzamido)-3-(4-(4-((4,5-dihydrooxazol-2-yl)amino)butoxy)phenyl)propanoic acid]
The IC50 of the first is higher: 250 to 1000 nM for the first, 50 to 250 nM for the second. The second is the more potent here.

Compared with `CN1C(=O)CN=C1NCCCCOc1ccc(C[C@H](NC(=O)c2c(Cl)cccc2Cl)C(=O)O)cc1` [Example 57, (S)-2-(2,6-dichlorobenzamido)-3-(4-(4-((1-methyl-5-oxo-4,5-dihydro-1H-imidazol-2-yl)amino)butoxy)phenyl)propanoic acid], `O=C(N[C@@H](Cc1ccc(OCCCCNC2=NCCS2)cc1)C(=O)O)c1c(Cl)cccc1Cl` [Example 62, (S)-2-(2,6-dichlorobenzamido)-3-(4-(4-((4,5-dihydrothiazol-2-yl)amino)butoxy)phenyl)propanoic acid] is lower in IC50: greater than 1000 nM for the first, less than 50 nM for the second.

Compared with `O=C(N[C@@H](Cc1ccc(OCCCCNC2=NCCCO2)cc1)C(=O)O)c1c(Cl)cccc1Cl` [Example 59, (S)-2-(2,6-dichlorobenzamido)-3-(4-(4-((5,6-dihydro-4H-1,3-oxazin-2-yl)amino)butoxy)phenyl)propanoic acid], `O=C(N[C@@H](Cc1ccc(OCCCCNC2=NCCCS2)cc1)C(=O)O)c1c(Cl)cccc1Cl` [Example 60, (S)-2-(2,6-dichlorobenzamido)-3-(4-(4-((5,6-dihydro-4H-1,3-thiazin-2-yl)amino)butoxy)phenyl)propanoic acid] is lower in IC50: greater than 1000 nM for the first, less than 50 nM for the second. The second is the more potent here.

Molecular target: recombinant human integrin αvβ1 (Homo sapiens (Human), UniProt P05556+P06756)
Experiment: Solid phase integrin αvβ1 binding assay (fibronectin)
Settings: recombinant human integrin αvβ1 coated plate, recombinant fibronectin 2 ug/ml, 2 hours at 25° C., read-out: αvβ1 Inhibition IC50 (nM)-range
Protocol: Example B2—Solid Phase Integrin αvβ1 Binding Assay
Microplates were coated with recombinant human integrin αvβ1 (2 ug/ml) in PBS (100 ul/well 4° C., overnight). The coating solution was removed, washed with PBS. Plate was blocked with 200 ul/well of Block Buffer (2% BSA in PBS) at 37° C. for 1 h. Dilutions of testing compounds and recombinant fibronectin (2 ug/ml) in binding and washing buffer (50 mM Tris-HCl, ph7.5; 0.1% BSA, 1 mM MnCl2; NaCl 150 mM; 0.02% Tween-20; 1 mM CaCl2); 1 mM MgCl2) were added. The plate was incubated for 2 hours at 25° C., washed, and incubated for 1 hour with Biotin-Anti-fibronectin. Bound antibody was detected by peroxidase-conjugated streptavidin. The IC50 values for testing compounds were calculated by a four-parameter logistic regression.
The compounds tested were compound samples prepared according to procedures described in the Synthetic Examples section, with the stereochemical purity as indicated in the Examples. The compounds tested were predominantly S-configuration at the alpha carbon of the amino acid scaffold, except for compounds 123, 124, and 125 which were predominantly R-configuration at the alpha carbon of the amino acid scaffold.

Sequence of recombinant human integrin αvβ1 (P06756 31-889): as the sequence (P06756 31-889) above
Sequence of recombinant human integrin αvβ1 (P06756 891-992 partner): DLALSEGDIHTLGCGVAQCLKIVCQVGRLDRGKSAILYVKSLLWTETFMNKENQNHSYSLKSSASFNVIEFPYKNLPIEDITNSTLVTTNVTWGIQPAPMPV
Sequence of recombinant human integrin αvβ1 (P05556 21-728): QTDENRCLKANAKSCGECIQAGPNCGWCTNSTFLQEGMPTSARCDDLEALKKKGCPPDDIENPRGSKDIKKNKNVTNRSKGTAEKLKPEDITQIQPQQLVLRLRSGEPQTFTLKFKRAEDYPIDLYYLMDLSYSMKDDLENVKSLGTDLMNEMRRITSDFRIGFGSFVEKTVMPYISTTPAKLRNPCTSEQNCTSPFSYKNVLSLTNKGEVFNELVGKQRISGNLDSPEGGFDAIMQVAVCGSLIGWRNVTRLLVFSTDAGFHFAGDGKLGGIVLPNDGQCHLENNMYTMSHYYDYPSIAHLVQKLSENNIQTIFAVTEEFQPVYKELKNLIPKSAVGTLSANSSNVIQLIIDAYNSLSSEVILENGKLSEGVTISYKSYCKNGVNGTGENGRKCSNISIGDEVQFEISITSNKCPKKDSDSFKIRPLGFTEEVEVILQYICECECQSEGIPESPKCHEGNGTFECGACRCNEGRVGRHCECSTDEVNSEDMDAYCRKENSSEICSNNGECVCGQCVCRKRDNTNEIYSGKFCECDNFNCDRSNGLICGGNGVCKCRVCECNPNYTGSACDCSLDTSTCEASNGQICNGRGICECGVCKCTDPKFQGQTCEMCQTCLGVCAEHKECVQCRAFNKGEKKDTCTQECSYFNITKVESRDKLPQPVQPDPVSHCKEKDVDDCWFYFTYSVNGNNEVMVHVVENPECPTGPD

`O=C(NC(CCCCCCCc1ccc2c(n1)NCCC2)C(=O)O)c1c(Cl)cccc1Cl` (centres unmarked) [Compound 65, 2-(2,6-dichlorobenzamido)-9-(5,6,7,8-tetrahydro-1,8-naphthyridin-2-yl)nonanoic acid] and `O=C(NC(CCCCCCCc1ccc2c(n1)NCCC2)C(=O)O)c1ccccc1Cl` (centres unmarked) [Compound 96] cannot be ordered by IC50: less than 50 nM for the first, less than 50 nM for the second.

First: O=C(NC(CN1CCC(OCCCc2ccc3c(n2)NCCC3)C1)C(=O)O)c1c(Cl)cccc1Cl (centres unmarked) [Compound 75, 2-(2,6-dichlorobenzamido)-3-(3-(3-(5,6,7,8-tetrahydro-1,8-naphthyridin-2-yl)propoxy)pyrrolidin-1-yl)propanoic acid]
Second: O=C(N[C@@H](CCCCCCCc1ccc2c(n1)NCCC2)C(=O)O)c1cccc(F)c1Cl [Compound 121]
The IC50 of the first is higher: 250 to 1000 nM for the first, less than 50 nM for the second. The second is the more potent here.

`O=C(NC(CCCCCCCc1ccc2c(n1)NCCC2)C(=O)O)c1ccc(Cl)cc1` (centres unmarked) [Compound 87] and `O=C(NC(CCCCCCCc1ccc2c(n1)NCCC2)C(=O)O)c1ccc(F)cc1` (centres unmarked) [Compound 88] cannot be ordered by IC50: less than 50 nM for the first, less than 50 nM for the second.

`COc1ccc(C(=O)NC(CCCCCCCc2ccc3c(n2)NCCC3)C(=O)O)cc1` (centres unmarked) [Compound 89] and `COc1cccc(C(=O)NC(CCCCCCCc2ccc3c(n2)NCCC3)C(=O)O)c1` (centres unmarked) [Compound 93] cannot be ordered by IC50: less than 50 nM for the first, less than 50 nM for the second.

`N#Cc1ccc(C(=O)NC(CCCCCCCc2ccc3c(n2)NCCC3)C(=O)O)cc1` (centres unmarked) [Compound 90] and `N#Cc1cccc(C(=O)NC(CCCCCCCc2ccc3c(n2)NCCC3)C(=O)O)c1` (centres unmarked) [Compound 94] cannot be ordered by IC50: less than 50 nM for the first, less than 50 nM for the second.

`O=C(NC(CCCCCCCc1ccc2c(n1)NCCC2)C(=O)O)c1cccc(Cl)c1` (centres unmarked) [Compound 91] and `O=C(NC(CCCCCCCc1ccc2c(n1)NCCC2)C(=O)O)c1cccc(F)c1` (centres unmarked) [Compound 92] cannot be ordered by IC50: less than 50 nM for the first, less than 50 nM for the second.

`O=C(NC(CCCCCCCc1ccc2c(n1)NCCC2)C(=O)O)c1ccccc1F` (centres unmarked) [Compound 95] and `O=C(N[C@@H](CCCCCCCc1ccc2c(n1)NCCC2)C(=O)O)c1cc(OC(F)(F)F)ccc1Cl` [Compound 118] cannot be ordered by IC50: less than 50 nM for the first, less than 50 nM for the second.

`O=C(O)C(CCCCCCCc1ccc2c(n1)NCCC2)NC(=O)N1CCn2c(nnc2C(F)(F)F)C1` (centres unmarked) [Compound 97] and `O=C(N[C@@H](CCCCCCCc1ccc2c(n1)NCCC2)C(=O)O)c1cc(F)cc(C(F)(F)F)c1` [Compound 122] cannot be ordered by IC50: less than 50 nM for the first, less than 50 nM for the second.

Going from `CC(C)Oc1ccc(C(=O)N[C@@H](CCCCCCCc2ccc3c(n2)NCCC3)C(=O)O)c(Cl)c1` [Compound 117] to `O=C(N[C@H](CCCCCCCc1ccc2c(n1)NCCC2)C(=O)O)c1cccc(-c2cncs2)c1` [Compound 124], the IC50 rises from less than 50 nM to greater than 1000 nM. The first is the more potent here.

First: Cc1cc(C)n(-c2cccc(C(=O)N[C@@H](CCCCCCCc3ccc4c(n3)NCCC4)C(=O)O)c2)n1 [Compound 119]
Second: Cn1cc(-c2cccc(C(=O)N[C@H](CCCCCCCc3ccc4c(n3)NCCC4)C(=O)O)c2)cn1 [Compound 123]
The IC50 of the first is lower: less than 50 nM for the first, greater than 1000 nM for the second.

First: O=C(N[C@H](CCCCCCCc1ccc2c(n1)NCCC2)C(=O)O)c1cc(F)cc(C(F)(F)F)c1 [Compound 125]
Second: O=C(N[C@@H](CCCCCCCc1ccc2c(n1)NCCC2)C(=O)O)c1cccc(-c2cncs2)c1 [Compound 126]
The IC50 of the first is higher: greater than 1000 nM for the first, 50 to 250 nM for the second. The second is the more potent here.
